Data reported in patent publication US20200079860A1, “METHODS AND COMPOSITIONS FOR TUMOR THERAPY” (MEMORIAL SLOAN KETTERING CANCER CENTER, priority 2015, published 2020).

Test system: B16F10 cells
Test: mouse bilateral tumor model (B16 murine melanoma); one tumor injected, contralateral non-injected
Format: in vivo, C57BL/6 mice
Description: By injecting only one of two tumors throughout the course of the experiment it is possible to separate the effect of the injected tumor from the “abscopal” effect on the distant non-injected tumor. Once treatment begins, tumors are measured twice weekly for at least 90 days.
Also, unless indicated otherwise, controls were treated with isotype control antibodies and vehicle only. Furthermore, unless indicated otherwise, all experiments were performed using the mouse bilateral tumor model described below and summarized in FIG. 2.
The animals used had large tumors in two opposite flanks. One tumor was injected while the second remained non-injected (FIG. 2), allowing separate analysis of the effect at the injected tumor from the so-called ‘abscopal’ effect at the non-injected tumor, in order to understand how this treatment could benefit patients with metastatic cancer. […] C57BL/6 mice were initially implanted with 5×10^5 syngeneic B16F10 cells intra-dermally in bilateral flanks. 8 days post tumor cell implantation, when bilateral tumors measured ˜0.5 cm, intratumoral (IT) treatment with various test agents was initiated together with intraperitoneal (IP) anti-PD-1 mAb. […]
8 days post tumor cell implantation, when bilateral tumors measured ˜0.5 cm, intratumoral (IT) treatment with agents selected to activate APCs was initiated together with intraperitoneal (IP) anti-PD-1 mAb. […]

Molecule | survival on concurrent addition of systemic chemotherapy (added IP to intratumoral MPL, anti-IL10R, and anti-CD40) | substitution for MPL in the treatment (FIG. 35B)
O=C1[O][Pt]2([NH][C@@H]3CCCC[C@H]3[NH]2)[O]C1=O [oxaliplatin] | increased survival | –
PolyIC | – | can be substituted for MPL, albeit possibly with slightly reduced activity
